Test results: ChEMBL document CHEMBL1649265, “Antimicrobial susceptibilities of Mycoplasma genitalium strains examined by broth dilution and quantitative PCR” (2009)
In brackets after ≈: the same amount, converted by molar mass.

Tests used:
Assay type in all cases: functional
Details in all cases: Mycoplasmoides genitalium
Mycoplasma genitalium [1] = assay: Antibacterial activity against Mycoplasma genitalium G37 by broth dilution method
Mycoplasma genitalium [2] = assay: Antibacterial activity against Mycoplasma genitalium TW10-5G by broth dilution method
Mycoplasma genitalium [3] = assay: Antibacterial activity against Mycoplasma genitalium TW48-5G by broth dilution method
Mycoplasma genitalium [4] = assay: Antibacterial activity against Mycoplasma genitalium R32 by broth dilution method
Mycoplasma genitalium [5] = assay: Antibacterial activity against Mycoplasma genitalium by broth dilution method
Mycoplasma genitalium [6] = assay: Antibacterial activity against Mycoplasma genitalium TW10-6G by broth dilution method
Mycoplasma genitalium [7] = assay: Antibacterial activity against Mycoplasma genitalium UTMB-10G by broth dilution method
Mycoplasma genitalium [8] = assay: Antibacterial activity against Mycoplasma genitalium by quantitative TaqMan PCR method
Mycoplasma genitalium [9] = assay: Antibacterial activity against Mycoplasma genitalium M30 by broth dilution method
Mycoplasma genitalium [10] = assay: Antibacterial activity against Mycoplasma genitalium M6151 by broth dilution method
Mycoplasma genitalium [11] = assay: Antibacterial activity against Mycoplasma genitalium M6286 by broth dilution method
Mycoplasma genitalium [12] = assay: Antibacterial activity against Mycoplasma genitalium M6287 by broth dilution method
Mycoplasma genitalium [13] = assay: Antibacterial activity against Mycoplasma genitalium M2341 by broth dilution method
Mycoplasma genitalium [14] = assay: Antibacterial activity against Mycoplasma genitalium M6283 by broth dilution method
Mycoplasma genitalium [15] = assay: Antibacterial activity against Mycoplasma genitalium M6282 by broth dilution method
Mycoplasma genitalium [16] = assay: Antibacterial activity against Mycoplasma genitalium M6090 by broth dilution method
Mycoplasma genitalium [17] = assay: Antibacterial activity against Mycoplasma genitalium M2282 by broth dilution method
Mycoplasma genitalium [18] = assay: Antibacterial activity against Mycoplasma genitalium M2321 by broth dilution method
Mycoplasma genitalium [19] = assay: Antibacterial activity against Mycoplasma genitalium M6257 by broth dilution method
Mycoplasma genitalium [20] = assay: Antibacterial activity against Mycoplasma genitalium M6328 by broth dilution method
Mycoplasma genitalium [21] = assay: Antibacterial activity against Mycoplasma genitalium M6280 by broth dilution method
Mycoplasma genitalium [22] = assay: Antibacterial activity against Mycoplasma genitalium M6285 by broth dilution method
Mycoplasma genitalium [23] = assay: Antibacterial activity against Mycoplasma genitalium M6284 by broth dilution method
Mycoplasma genitalium [24] = assay: Antibacterial activity against Mycoplasma genitalium M2300 by broth dilution method

Structure (SMILES) | MIC50 (Mycoplasma genitalium [8]) [µg/mL] | MIC90 (Mycoplasma genitalium [8]) [µg/mL] | MIC (Mycoplasma genitalium [10]) [µg/mL] | MIC (Mycoplasma genitalium [11]) [µg/mL] | MIC (Mycoplasma genitalium [1]; read-out: MIC) [µg/mL] | MIC (Mycoplasma genitalium [12]) [µg/mL] | MIC (Mycoplasma genitalium [2]; read-out: MIC) [µg/mL] | MIC (Mycoplasma genitalium [3]; read-out: MIC) [µg/mL] | MIC (Mycoplasma genitalium [13]) [µg/mL] | MIC (Mycoplasma genitalium [4]; read-out: MIC) [µg/mL] | MIC (Mycoplasma genitalium [14]) [µg/mL] | MIC (Mycoplasma genitalium [15]) [µg/mL] | MIC (Mycoplasma genitalium [16]) [µg/mL] | MIC (Mycoplasma genitalium [6]; read-out: MIC) [µg/mL] | MIC (Mycoplasma genitalium [17]) [µg/mL] | MIC (Mycoplasma genitalium [18]) [µg/mL] | MIC (Mycoplasma genitalium [19]) [µg/mL] | MIC (Mycoplasma genitalium [7]; read-out: MIC) [µg/mL] | MIC (Mycoplasma genitalium [20]) [µg/mL] | MIC (Mycoplasma genitalium [9]; read-out: MIC) [µg/mL] | further results
CC[C@H]1OC(=O)[C@H](C)[C@@H](O[C@H]2C[C@@](C)(OC)[C@@H](O)[C@H](C)O2)[C@H](C)[C@@H](O[C@@H]2O[C@H](C)C[C@H](N(C)C)[C@H]2O)[C@](C)(O)C[C@@H](C)CN(C)[C@H](C)[C@@H](O)[C@]1(C)O [AZITHROMYCIN] | 0.004 (≈ 0.00534 µM) | 0.008 (≈ 0.0107 µM) | – | – | – | – | – | – | – | – | – | – | – | – | – | – | – | – | – | – | MIC (Mycoplasma genitalium [1]): 0.001 µg/mL (≈ 0.00134 µM); MIC (Mycoplasma genitalium [2]): 0.001 µg/mL (≈ 0.00134 µM); MIC (Mycoplasma genitalium [3]): 0.001 µg/mL (≈ 0.00134 µM); MIC (Mycoplasma genitalium [4]): 0.001 µg/mL (≈ 0.00134 µM); MIC50 (Mycoplasma genitalium [5]): 0.001 µg/mL (≈ 0.00134 µM); MIC90 (Mycoplasma genitalium [5]): 0.002 µg/mL (≈ 0.00267 µM); MIC (Mycoplasma genitalium [6]): 0.001 µg/mL (≈ 0.00134 µM); MIC (Mycoplasma genitalium [7]): 0.001 µg/mL (≈ 0.00134 µM); MIC (Mycoplasma genitalium [9]): 0.001 µg/mL (≈ 0.00134 µM)
O=C(O)c1cn(C2CC2)c2cc(N3CCNCC3)c(F)cc2c1=O [CIPROFLOXACIN] | 2 (≈ 6.04 µM) | 8 (≈ 24.1 µM) | 0.063 (≈ 0.19 µM) | 0.063 (≈ 0.19 µM) | 0.004 (≈ 0.0121 µM) | 0.063 (≈ 0.19 µM) | 0.004 (≈ 0.0121 µM) | 0.004 (≈ 0.0121 µM) | 0.063 (≈ 0.19 µM) | 0.004 (≈ 0.0121 µM) | 0.063 (≈ 0.19 µM) | 0.063 (≈ 0.19 µM) | 0.063 (≈ 0.19 µM) | 0.004 (≈ 0.0121 µM) | 0.063 (≈ 0.19 µM) | 0.063 (≈ 0.19 µM) | 0.063 (≈ 0.19 µM) | 0.004 (≈ 0.0121 µM) | 0.063 (≈ 0.19 µM) | 0.004 (≈ 0.0121 µM) | MIC (Mycoplasma genitalium [21]): 0.063 µg/mL (≈ 0.19 µM); MIC (Mycoplasma genitalium [22]): 0.063 µg/mL (≈ 0.19 µM); MIC (Mycoplasma genitalium [23]): 0.063 µg/mL (≈ 0.19 µM); MIC (Mycoplasma genitalium [24]): 0.063 µg/mL (≈ 0.19 µM)
CC[C@H]1OC(=O)[C@H](C)[C@@H](O[C@H]2C[C@@](C)(OC)[C@@H](O)[C@H](C)O2)[C@H](C)[C@@H](O[C@@H]2O[C@H](C)C[C@H](N(C)C)[C@H]2O)[C@](C)(OC)C[C@@H](C)C(=O)[C@H](C)[C@@H](O)[C@]1(C)O [CLARITHROMYCIN] | 0.032 (≈ 0.0428 µM) | 0.063 (≈ 0.0842 µM) | – | – | – | – | – | – | – | – | – | – | – | – | – | – | – | – | – | – | MIC (Mycoplasma genitalium [1]): 0.002 µg/mL (≈ 0.00267 µM); MIC (Mycoplasma genitalium [2]): 0.002 µg/mL (≈ 0.00267 µM); MIC (Mycoplasma genitalium [3]): 0.002 µg/mL (≈ 0.00267 µM); MIC (Mycoplasma genitalium [4]): 0.002 µg/mL (≈ 0.00267 µM); MIC50 (Mycoplasma genitalium [5]): 0.004 µg/mL (≈ 0.00535 µM); MIC90 (Mycoplasma genitalium [5]): 0.008 µg/mL (≈ 0.0107 µM); MIC (Mycoplasma genitalium [6]): 0.002 µg/mL (≈ 0.00267 µM); MIC (Mycoplasma genitalium [7]): 0.002 µg/mL (≈ 0.00267 µM); MIC (Mycoplasma genitalium [9]): 0.002 µg/mL (≈ 0.00267 µM)

Continued, in another order:

MIC50 (Mycoplasma genitalium [8]) [µg/mL] | MIC90 (Mycoplasma genitalium [8]) [µg/mL] | MIC (Mycoplasma genitalium [10]) [µg/mL] | MIC (Mycoplasma genitalium [11]) [µg/mL] | MIC (Mycoplasma genitalium [1]; read-out: MIC) [µg/mL] | MIC (Mycoplasma genitalium [12]) [µg/mL] | MIC (Mycoplasma genitalium [2]; read-out: MIC) [µg/mL] | MIC (Mycoplasma genitalium [3]; read-out: MIC) [µg/mL] | MIC (Mycoplasma genitalium [13]) [µg/mL] | MIC (Mycoplasma genitalium [4]; read-out: MIC) [µg/mL] | MIC (Mycoplasma genitalium [14]) [µg/mL] | MIC (Mycoplasma genitalium [15]) [µg/mL] | MIC (Mycoplasma genitalium [16]) [µg/mL] | MIC (Mycoplasma genitalium [6]; read-out: MIC) [µg/mL] | MIC (Mycoplasma genitalium [17]) [µg/mL] | MIC (Mycoplasma genitalium [18]) [µg/mL] | MIC (Mycoplasma genitalium [19]) [µg/mL] | MIC (Mycoplasma genitalium [7]; read-out: MIC) [µg/mL] | MIC (Mycoplasma genitalium [20]) [µg/mL] | MIC (Mycoplasma genitalium [9]; read-out: MIC) [µg/mL] | Structure (SMILES) | further results
0.25 | 0.5 | 0.063 | 0.063 | 0.063 | 0.063 | 0.063 | 0.063 | 0.063 | 0.063 | 0.063 | 0.063 | 0.063 | 0.063 | 0.063 | 0.063 | 0.063 | 0.063 | 0.063 | 0.063 | C[C@H]1c2cccc(O)c2C(=O)C2=C(O)[C@]3(O)C(=O)C(C(N)=O)=C(O)[C@@H](N(C)C)[C@@H]3[C@@H](O)[C@@H]21.O [DOXYCYCLINE] | MIC50 (Mycoplasma genitalium [5]; read-out: MIC50): 0.125 µg/mL; MIC90 (Mycoplasma genitalium [5]; read-out: MIC90): 0.25 µg/mL; MIC (Mycoplasma genitalium [21]): 0.063 µg/mL; MIC (Mycoplasma genitalium [22]): 0.063 µg/mL; MIC (Mycoplasma genitalium [23]): 0.063 µg/mL; MIC (Mycoplasma genitalium [24]): 0.063 µg/mL
0.5 (≈ 1.33 µM) | 0.5 (≈ 1.33 µM) | 0.031 (≈ 0.0826 µM) | 0.031 (≈ 0.0826 µM) | 0.125 (≈ 0.333 µM) | 0.031 (≈ 0.0826 µM) | 0.125 (≈ 0.333 µM) | 0.125 (≈ 0.333 µM) | 0.031 (≈ 0.0826 µM) | 0.125 (≈ 0.333 µM) | 0.031 (≈ 0.0826 µM) | 0.031 (≈ 0.0826 µM) | 0.031 (≈ 0.0826 µM) | 0.125 (≈ 0.333 µM) | 0.031 (≈ 0.0826 µM) | 0.031 (≈ 0.0826 µM) | 0.031 (≈ 0.0826 µM) | 0.125 (≈ 0.333 µM) | 0.031 (≈ 0.0826 µM) | 0.125 (≈ 0.333 µM) | COc1c(N2CCNC(C)C2)c(F)cc2c(=O)c(C(=O)O)cn(C3CC3)c12 (stereo not drawn) [GATIFLOXACIN] | MIC50 (Mycoplasma genitalium [5]; read-out: MIC50): 0.25 µg/mL (≈ 0.666 µM); MIC90 (Mycoplasma genitalium [5]; read-out: MIC90): 0.25 µg/mL (≈ 0.666 µM); MIC (Mycoplasma genitalium [21]): 0.031 µg/mL (≈ 0.0826 µM); MIC (Mycoplasma genitalium [22]): 0.031 µg/mL (≈ 0.0826 µM); MIC (Mycoplasma genitalium [23]): 0.031 µg/mL (≈ 0.0826 µM); MIC (Mycoplasma genitalium [24]): 0.031 µg/mL (≈ 0.0826 µM)
